# Source: EPA's ToxRefDB 2
# Columns and labels:
# rat [1] = conditions: Subchronic oral toxicity in rodents, sprague dawley, Gavage/Intubation, dose end: 91 day, group: systemic
# mouse [2] = conditions: Combined chronic toxicity/carcinogenicity; other; Oral; Gavage/Intubation; dose end: 10 month; group: systemic; systemic / pathology microscopic / liver / neoplastic nodule + systemic / pathology microscopic / liver / dysplasia
# rat [3] = conditions: Chronic toxicity, sprague dawley, Oral, Gavage/Intubation, dose end: 39 week, group: systemic
# dog [4] = conditions: Chronic toxicity, beagle, Oral, Capsule, dose end: 40 week, group: systemic
# rat [5] = conditions: Sub-acute repeat dose toxicity, wistar, Oral, Gavage/Intubation, dose end: 28 day
# rat [6] = conditions: Sub-acute repeat dose toxicity, other, Oral, Gavage/Intubation, dose end: 30 day
# rat [7] = conditions: Multigenerational reproductive toxicity study, sprague dawley, Oral, Feed, dose end: 2 generation
# mouse [8] = conditions: Carcinogenicity, cd1, Oral, Feed, dose end: 78 week, group: systemic
# rat [9] = conditions: Subchronic oral toxicity in rodents, sprague dawley, Feed, dose end: 13 week
# rat [10] = conditions: Prenatal developmental toxicity study, Sprague-Dawley, Oral, Gavage/Intubation, dose end: 15 GD
# dog [11] = conditions: Chronic toxicity, beagle, Oral, Capsule, dose end: 12 month
# rabbit = conditions: Prenatal developmental toxicity study, new zealand white, Oral, Gavage/Intubation, dose end: 19 GD
# dog [12] = conditions: Subchronic oral toxicity in nonrodent, beagle, Feed, dose end: 3 month
# [13] = systemic / in life observation / mortality / mortality + systemic / pathology microscopic / kidney / hydronephrosis + systemic / clinical …
# [14] = systemic / organ weight / [other] / absolute + systemic / organ weight / [other] / relative to body weight + systemic / pathology gross / …
# [15] = systemic / in life observation / body weight / body weight gain + systemic / pathology gross / liver / fat vacuolation + systemic / …
# [16] = systemic / pathology microscopic / blood / [other] + systemic / clinical chemistry / alanine aminotransferase (alt/sgpt) / alanine …
# [17] = group: maternal, reproductive / reproductive performance / estrous cycle / abnormal
# [18] = group: systemic, systemic / clinical chemistry / albumin / albumin + systemic / clinical chemistry / cholesterol / cholesterol + systemic / clinical …
# [19] = group: systemic, systemic / clinical chemistry / cholesterol / cholesterol + systemic / clinical chemistry / thyroid stimulating hormone (thyrotropin) (tsh…
# [20] = group: maternal, reproductive / reproductive performance / estrous cycle / abnormal + reproductive / reproductive performance / estrous cycle / length
# [21] = group: maternal, reproductive / reproductive performance / estrous cycle / length
# [22] = group: systemic, systemic / clinical chemistry / follicle stimulating hormone (fsh) / follicle stimulating hormone (fsh) + systemic / in life observation / …
# [23] = group: systemic, systemic / organ weight / adrenal gland / relative to body weight + systemic / organ weight / ovary / relative to body weight + systemic / …
# [24] = group: offspring, systemic / in life observation / body weight / offspring (pup) weight
# [25] = group: parental, systemic / in life observation / body weight / body weight
# [26] = group: parental, systemic / in life observation / body weight / body weight + systemic / pathology microscopic / heart / cardiomyopathy
# [27] = systemic / in life observation / body weight / body weight + systemic / in life observation / food consumption / food consumption
# [28] = group: cholinesterase, cholinesterase / cholinesterase / cholinesterase / brain cholinesterase (che) + cholinesterase / cholinesterase / cholinesterase / plasma …
# [29] = group: cholinesterase, cholinesterase / cholinesterase / cholinesterase / plasma cholinesterase (che)
# [30] = group: systemic, systemic / in life observation / body weight / body weight + systemic / in life observation / body weight / body weight gain + systemic / in…
# [31] = group: systemic, systemic / in life observation / body weight / body weight + systemic / in life observation / body weight / body weight gain + systemic / …
# [32] = group: developmental, developmental / developmental malformation / bone / unossified + developmental / developmental malformation / trunk / omphalocele + systemic…
# [33] = group: maternal, reproductive / reproductive performance / resorptions / resorptions + systemic / in life observation / body weight / body weight + systemic…
# [34] = group: systemic, systemic / pathology microscopic / thymus / atrophy
# [35] = group: cholinesterase, cholinesterase / cholinesterase / cholinesterase / erythrocyte cholinesterase (che) + cholinesterase / cholinesterase / cholinesterase / …
# [36] = group: developmental, systemic / in life observation / body weight / fetal weight
# [37] = group: maternal, systemic / in life observation / body weight / body weight + systemic / in life observation / clinical signs / fur (altered appearance) + …
# [38] = group: systemic, systemic / in life observation / clinical signs / salivation + systemic / clinical chemistry / urea nitrogen / urea nitrogen + systemic / in…
compound,measurement,setting,value
[PH]=[Zn].[PH]=[Zn].[Zn] [Zinc phosphide],NEL,rat [1]; systemic / in life observation / clinical signs / body cold to touch + systemic / in life observation / clinical signs / salivation + …,0.1 mg/kg/day
same,LOAEL,rat [1]; systemic / in life observation / mortality / mortality + systemic / pathology microscopic / kidney / hydronephrosis,1 mg/kg/day
same,LEL,rat [1]; [13],1 mg/kg/day
same,NOAEL,rat [1]; [13],0.1 mg/kg/day
C[C@]12CCC(=O)C=C1CC[C@@H]1[C@@H]2CC[C@@]2(C)[C@H]1CC[C@]2(C)O [17-Methyltestosterone],LEL,mouse [2],5 mg/kg/day
same,LOAEL,mouse [2],> 5 mg/kg/day
same,NEL,mouse [2],< 5 mg/kg/day
same,NOAEL,mouse [2],≥ 5 mg/kg/day
same,LOAEL,rat [3]; [14],> 40 mg/kg/day
same,NEL,rat [3]; [14],2 mg/kg/day
same,NOAEL,rat [3]; [14],≥ 40 mg/kg/day
same,LEL,rat [3]; systemic / pathology gross / testes / reduced size + systemic / in life observation / body weight / body weight gain + systemic / in life …,10 mg/kg/day
same,LOAEL,dog [4]; [15],> 6 mg/kg/day
same,NOAEL,dog [4]; [15],≥ 6 mg/kg/day
same,LEL,dog [4]; [16],2 mg/kg/day
same,NEL,dog [4]; [16],< 2 mg/kg/day
same,LEL,rat [5]; [17],100 mg/kg/day
same,LOAEL,rat [5]; [17],> 600 mg/kg/day
same,NEL,rat [5]; [17],10 mg/kg/day
same,NOAEL,rat [5]; [17],≥ 600 mg/kg/day
same,LOAEL,rat [5]; [18],> 200 mg/kg/day
same,NOAEL,rat [5]; [18],≥ 200 mg/kg/day
same,LEL,rat [5]; [19],10 mg/kg/day
same,NEL,rat [5]; [19],< 10 mg/kg/day
same,LOAEL,rat [6]; [20],> 80 mg/kg/day
same,NOAEL,rat [6]; [20],≥ 80 mg/kg/day
same,LEL,rat [6]; [21],5 mg/kg/day
same,NEL,rat [6]; [21],< 5 mg/kg/day
same,LOAEL,rat [6]; [22],> 80 mg/kg/day
same,NOAEL,rat [6]; [22],≥ 80 mg/kg/day
same,LEL,rat [6]; [23],5 mg/kg/day
same,NEL,rat [6]; [23],< 5 mg/kg/day
CCCN(CCC)C(=O)SCC [EPTC],LEL,rat [7]; [24],40 mg/kg/day
same,LOAEL,rat [7]; [24],40 mg/kg/day
same,NEL,rat [7]; [24],10 mg/kg/day
same,NOAEL,rat [7]; [24],10 mg/kg/day
same,NEL,rat [7]; [25],2.5 mg/kg/day
same,NOAEL,rat [7]; [25],2.5 mg/kg/day
same,LEL,rat [7]; [26],10 mg/kg/day
same,LOAEL,rat [7]; [26],10 mg/kg/day
same,LEL,mouse [8]; systemic / in life observation / body weight / body weight,90 mg/kg/day
same,LOAEL,mouse [8]; [27],270 mg/kg/day
same,NEL,mouse [8]; [27],30 mg/kg/day
same,NOAEL,mouse [8]; [27],90 mg/kg/day
same,LOAEL,rat [9]; [28],> 120 mg/kg/day
same,NOAEL,rat [9]; [28],≥ 120 mg/kg/day
same,LEL,rat [9]; [29],72 mg/kg/day
same,NEL,rat [9]; [29],15 mg/kg/day
same,LOAEL,rat [9]; [30],15 mg/kg/day
same,NOAEL,rat [9]; [30],3 mg/kg/day
same,LEL,rat [9]; [31],3 mg/kg/day
same,NEL,rat [9]; [31],< 3 mg/kg/day
same,LEL,rat [10]; [32],300 mg/kg/day
same,LOAEL,rat [10]; [32],300 mg/kg/day
same,NEL,rat [10]; [32],100 mg/kg/day
same,NOAEL,rat [10]; [32],100 mg/kg/day
same,LEL,"rat [10]; group: maternal, reproductive / reproductive performance / postimplantation loss / postimplantation loss",100 mg/kg/day
same,LOAEL,rat [10]; [33],300 mg/kg/day
same,NEL,rat [10]; [33],30 mg/kg/day
same,NOAEL,rat [10]; [33],100 mg/kg/day
same,LEL,dog [11]; [29],8 mg/kg/day
same,LOAEL,dog [11]; [29],8 mg/kg/day
same,NEL,dog [11]; [29],1 mg/kg/day
same,NOAEL,dog [11]; [29],1 mg/kg/day
same,NOAEL,"dog [11]; group: systemic, systemic / pathology microscopic / lung / fibrosis + systemic / pathology microscopic / lung / inflammation + systemic / clinical chemistry…",1 mg/kg/day
same,LOAEL,"dog [11]; group: systemic, systemic / pathology microscopic / lung / fibrosis + systemic / pathology microscopic / lung / inflammation + systemic / in life observation…",8 mg/kg/day
same,LEL,dog [11]; [34],1 mg/kg/day
same,NEL,dog [11]; [34],< 1 mg/kg/day
same,LEL,rabbit; [35],5 mg/kg/day
same,LOAEL,rabbit; [35],5 mg/kg/day
same,NEL,rabbit; [35],< 5 mg/kg/day
same,NOAEL,rabbit; [35],< 5 mg/kg/day
same,LEL,rabbit; [36],300 mg/kg/day
same,LOAEL,rabbit; [36],300 mg/kg/day
same,NEL,rabbit; [36],40 mg/kg/day
same,NOAEL,rabbit; [36],40 mg/kg/day
same,LEL,rabbit; [37],300 mg/kg/day
same,LOAEL,rabbit; [37],300 mg/kg/day
same,NEL,rabbit; [37],40 mg/kg/day
same,NOAEL,rabbit; [37],40 mg/kg/day
same,LEL,dog [12]; [29],45 mg/kg/day
same,LOAEL,dog [12]; [29],45 mg/kg/day
same,NEL,dog [12]; [29],15 mg/kg/day
same,NOAEL,dog [12]; [29],15 mg/kg/day
same,LOAEL,"dog [12]; group: systemic, systemic / in life observation / clinical signs / salivation",45 mg/kg/day
same,LEL,dog [12]; [38],45 mg/kg/day
same,NEL,dog [12]; [38],15 mg/kg/day
same,NOAEL,dog [12]; [38],15 mg/kg/day
